Consider one substance from PMC4004541, “PEG-Like Nanoprobes: Multimodal, Pharmacokinetically and Optically Tunable Nanomaterials” (PLoS ONE, 2014).

The subject of this experiment is mCherry/HT29 cells. The experiment can be described thus: Confocal microscopy of mCherry/HT29 tumor sections. Type of experiment: in vivo, nude mice. The conditions noted are these: tumor collected 48 h post IV injection. The method, then:
With skin removed, an overlay of tumor mCherry (green) and PN(545)10.0 (purple) gave a white superimposition. To determine the cells responsible for the accumulation of PN(783)10.0 seen with surface fluorescence ( Figure 5C ), we employed confocal microscopy of mCherry/HT29 tumor sections ( Figure 5D ).
The mCherry-HT-29 tumor sample was collected at 48 h post IV injection with PN(497)10.0, and then cryosectioned with thickness of 5 µm. The tumor section was fixed with 4% PFA, mounted with 90% glycerol/10% PBS (at pH 8.5 for best fluorescein fluorescence), and stained with DAPI. Confocal imaging was performed on a Zeiss LSM510 laser scanning confocal microscope (Zeiss Axiophot, Carl Zeiss, Jena, Germany). A 405 nm diode Laser, 488 nm argon laser, and 561 nm diode laser were used for the excitation of DAPI, fluorescein, and mCherry, respectively. A primary dichroic HFT 405/488/561 was used in combination with an LP420 emission filter for DAPI, BP505-530 for fluorescein, and LP575 for mCherry. Images were analyzed with ImageJ64.
Confocal imaging: The mCherry-HT-29 tumor sample was collected at 48 h post IV injection with PN(497)10.0, and then cryosectioned with thickness of 5 µm. The tumor section was fixed with 4% PFA, mounted with 90% glycerol/10% PBS (at pH 8.5 for best fluorescein fluorescence), and stained with DAPI. […] Images were analyzed with ImageJ64.

With “(DOTA)Lys(PEG 30 kDa)-Cys(Fl) [PN(497)10.0, PEG-like Nanoprobe: 30 kDa PEG, fluorescein, DOTA peptide]”, the “Cellular localisation in tumor sections” value was “seen in mCherry/HT29 cells”.
